Source: US9221746B2, “Homo- and hetero-polyamino-acid derivatives of fullerene C60, method for producing same, and pharmaceutical compositions based on said derivatives” (priority 2011, dated 2015)
Like-named read-outs stand apart in the source and are kept apart here.

Experiments:
[1] = system: Herpes simplex virus, type 1, Lg strain; assay: Anti-herpetic activity in the Vero cell culture; type: cell-based; details: for Optical density: MTT assay
[2] = system: type 1 human immunodeficiency virus; assay: Antiviral activity on HIV-1 infected human cell model; type: cell-based; details: for Cell survival rate, % / Number of cells × 10^3/mL / CPE/syncytia (+): HIV-1 infected cells; for CPE/syncytia (+): four-plus system
[3] = system: breast adenocarcinoma Ca-755; type: in vivo, mice; details: for ILT, %: increase in lifetime compared to the control
Method: These studies were carried out at the Institute for Toxicology, St. Petersburg, 2006, according to “Guidelines for the Study of Antitumor Activity of Pharmacological Agents” (“Manual on Experimental (Preclinical) Study of New Pharmacological Agents,” Ministry of Public Health of the Russian Federation, Remedium, Moscow, 2000, pp. 319-325).
The L1210 leukemia, breast adenocarcinoma Ca-755, and Lewis carcinoma (3LL) tumor cell strain were purchased from the Petrov Research Institute for Oncology, the Ministry of Public Health of the Russian Federation (St. Petersburg).
C 57 BL/6J line male mice with transplanted Ca-755 cells. Mouse ages: 6 to 8 weeks; body weights: 19 to 25 g.
The antitumor effect was ascertained through the following parameters: • ascite accumulation as animal body weight gain; • the lifetime of animals; and • tumor growth. The larger dimension of the tumor (length) and the smaller dimension normal thereto (width) were measured. The tumor volume was calculated, and the inhibition of tumor growth was calculated by a formula. The ascertainment criterion was the day when each individual tumor reached a volume of 500 mm^3.

[4] = system: A/Aichi/2/69 (H3N2) influenza virus; assay: Induced influenza pneumonia in mice
[5] = LD70, intramuscularly 50 mg/kg/day
[6] = LD70, intramuscularly 100 mg/kg/day
[7] = LD70, intramuscularly 200 mg/kg/day
[8] = LD70, intraperitoneally 50 mg/kg/day

Fullerene Poly(Aminocaproic Acid) of Formula C60(H3){NH(CH2)5COO—}3{NH3^+(CH2)5COOH}3 [Agent No. 1]
protection of cells from the cytodestructive effect of the virus ([1]; 100 TCD50, agent 60 minutes prior to infecting, all concentrations from 5.0 mcg/mL and higher): completely protects
protection of cell culture from the cytodestructive effect of the virus ([1]; 1000 TCD50/0.2 mL, infected 60 minutes post inserting the agent): complete protection
Optical density ([1]; 100 TCD50, 5.0 mcg/mL): 1.110 ± 0.08
Optical density ([1]; 100 TCD50, 10.0 mcg/mL): 1.015 ± 0.07
Optical density ([1]; 100 TCD50, 50.0 mcg/mL): 1.153 ± 0.06
Optical density ([1]; 100 TCD50, 100.0 mcg/mL): 1.79 ± 0.05
Optical density ([1]; 1000 TCD50, 5.0 mcg/mL): 1.027 ± 0.04
Optical density ([1]; 1000 TCD50, 10.0 mcg/mL): 1.021 ± 0.04
Optical density ([1]; 1000 TCD50, 50.0 mcg/mL): 1.033 ± 0.03
Optical density ([1]; 1000 TCD50, 100.0 mcg/mL): 1.083 ± 0.01
Cell survival rate, % ([2]; 0.5 mcg/mL): 18%
Number of cells × 10^3/mL ([2]; 0.5 mcg/mL): 33 × 10^3/mL
CPE/syncytia (+) ([2]; 0.5 mcg/mL): 4.0 (+)
Cell survival rate, % ([2]; 1.0 mcg/mL): 26%
Number of cells × 10^3/mL ([2]; 1.0 mcg/mL): 495 × 10^3/mL
CPE/syncytia (+) ([2]; 1.0 mcg/mL): 4.0 (+)
Cell survival rate, % ([2]; 5.0 mcg/mL): 98%
Number of cells × 10^3/mL ([2]; 5.0 mcg/mL): 633 × 10^3/mL
CPE/syncytia (+) ([2]; 5.0 mcg/mL): 0 (+)
Cell survival rate, % ([2]; 10 mcg/mL): 98%
Number of cells × 10^3/mL ([2]; 10 mcg/mL): 600 × 10^3/mL
CPE/syncytia (+) ([2]; 10 mcg/mL): 0 (+)
EC50 (50% effective concentration) ([2]; type 1 human immunodeficiency virus): 0.9 µg/mL
ALT in days, M ± m ([3]; 100 mg/kg): 71.9 ± 2.58 days
ILT, % ([3]; 100 mg/kg): 89.71%
ALT in days, M ± m ([3]; 100 mg/kg, listed as agent): 71.9 ± 2.58 days
average lifetime ([3]; 200 mg/kg): 73.4+0.92 days
percent increase in lifetime compared to the control ([3]; 200 mg/kg): 93.67%
ALT in days, M ± m ([3]; 250 mg/kg): 73.40 ± 0.92 days
ILT, % ([3]; 250 mg/kg): 93.67%
intoxication signatures ([3]; mouse, in vivo): No intoxication signatures were detected
Average lifetime (days) [4, 5]: 13.3 (1-7 d., 1-8 d.) days
Percent death protection (%) [4, 5]: 50%
Percent body weight change in days post infection ([4]; LD70, intramuscularly 50 mg/kg/day, day 1): +20%
Percent body weight change in days post infection ([4]; LD70, intramuscularly 50 mg/kg/day, day 2): +22%
Percent body weight change in days post infection ([4]; LD70, intramuscularly 50 mg/kg/day, day 3): +22%
Percent body weight change in days post infection ([4]; LD70, intramuscularly 50 mg/kg/day, day 4): +17%
Percent body weight change in days post infection ([4]; LD70, intramuscularly 50 mg/kg/day, day 5): +11%
Percent body weight change in days post infection ([4]; LD70, intramuscularly 50 mg/kg/day, day 7): +9%
Percent body weight change in days post infection ([4]; LD70, intramuscularly 50 mg/kg/day, day 9): +11%
Percent body weight change in days post infection ([4]; LD70, intramuscularly 50 mg/kg/day, day 11): +19%
Percent body weight change in days post infection ([4]; LD70, intramuscularly 50 mg/kg/day, day 13): +26%
Percent death protection (%) [4, 6]: 70%
average lifetime [4, 6]: >16 days
Percent body weight change in days post infection ([4]; LD70, intramuscularly 100 mg/kg/day, day 1): +21%
Percent body weight change in days post infection ([4]; LD70, intramuscularly 100 mg/kg/day, day 2): +25%
Percent body weight change in days post infection ([4]; LD70, intramuscularly 100 mg/kg/day, day 3): +27%
Percent body weight change in days post infection ([4]; LD70, intramuscularly 100 mg/kg/day, day 4): +23%
Percent body weight change in days post infection ([4]; LD70, intramuscularly 100 mg/kg/day, day 5): +20%
Percent body weight change in days post infection ([4]; LD70, intramuscularly 100 mg/kg/day, day 7): +21.5%
Percent body weight change in days post infection ([4]; LD70, intramuscularly 100 mg/kg/day, day 9): +32%
Percent body weight change in days post infection ([4]; LD70, intramuscularly 100 mg/kg/day, day 11): +35.5%
Percent body weight change in days post infection ([4]; LD70, intramuscularly 100 mg/kg/day, day 13): +38%
Average lifetime (days) [4, 7]: 13.8 (1-7 d., 1-13 d.) days
Percent death protection (%) [4, 7]: 50%
Percent body weight change in days post infection ([4]; LD70, intramuscularly 200 mg/kg/day, day 1): +25%
Percent body weight change in days post infection ([4]; LD70, intramuscularly 200 mg/kg/day, day 2): +27%
Percent body weight change in days post infection ([4]; LD70, intramuscularly 200 mg/kg/day, day 3): +28%
Percent body weight change in days post infection ([4]; LD70, intramuscularly 200 mg/kg/day, day 4): +24%
Percent body weight change in days post infection ([4]; LD70, intramuscularly 200 mg/kg/day, day 5): +20%
Percent body weight change in days post infection ([4]; LD70, intramuscularly 200 mg/kg/day, day 7): +23%
Percent body weight change in days post infection ([4]; LD70, intramuscularly 200 mg/kg/day, day 9): +22%
Percent body weight change in days post infection ([4]; LD70, intramuscularly 200 mg/kg/day, day 11): +25%
Percent body weight change in days post infection ([4]; LD70, intramuscularly 200 mg/kg/day, day 13): +36.5%
Average lifetime (days) [4, 8]: 13.4 (2-8 d.) days
Percent death protection (%) [4, 8]: 50%
Percent body weight change in days post infection ([4]; LD70, intraperitoneally 50 mg/kg/day, day 1): +21%
Percent body weight change in days post infection ([4]; LD70, intraperitoneally 50 mg/kg/day, day 2): +27%
Percent body weight change in days post infection ([4]; LD70, intraperitoneally 50 mg/kg/day, day 3): +29%
Percent body weight change in days post infection ([4]; LD70, intraperitoneally 50 mg/kg/day, day 4): +21%
Percent body weight change in days post infection ([4]; LD70, intraperitoneally 50 mg/kg/day, day 5): +16%
Percent body weight change in days post infection ([4]; LD70, intraperitoneally 50 mg/kg/day, day 7): +15%
Percent body weight change in days post infection ([4]; LD70, intraperitoneally 50 mg/kg/day, day 9): +31%
